This note sets out measurements from patent US10940118B2, “Nanoparticles and methods of producing the same” (THE BOARD OF TRUSTEES OF THE UNIVERSITY OF ILLINOIS, priority 2013, dated 2021).

For test [1], the system named is ICR mice. The test is described as follows: 52° C. warm-water tail-flick test, acute morphine tolerance. The class given is in vivo. Particulars: oral administration following subcutaneous injection of morphine. The method, then:
Basal nociception and morphine-induced antinociception were studied using the 52° C. warm-water tail-flick test. In brief, mice were held over the water bath and one third of the distal portion of the tail was immersed into the water. The latency to a quick tail-flick response was recorded as a base-line measurement. Any mouse not responding within 5 sec was excluded from further experiment. To prevent tissue damage, a cut-off time of 12 sec was applied. Morphine-induced antinociception was evaluated 30 min after the injection of a testing dose of morphine (10 mg/kg s.c.), and expressed as the percentage of maximal possible effect (% MPE) according to the following formula: % MPE=100×(postdrug latency−predrug latency)/(cut off−predrug latency)
To induce acute tolerance and dependence, separate groups of three ICR mice (20-25 g) were treated with a large dose of morphine (100 mg/kg s.c.). Maximal morphine tolerance and dependence peaked at approximately 4 to 6 h. Mice in the control group received an equal volume of saline. Tolerance to opioids was assessed 4.5 h later by monitoring the antinociceptive effect produced by a test dose of morphine (10 mg/kg, s.c.). The presence of opioid tolerance was signified by a significant reduction of antinociceptive effect. […] Mice were immediately placed inside glass cylinders, and naloxone-induced vertical jumps were recorded for 15 min. […]
On the technique in general: In hot-plate and tail-flick tests a longer latency is read as antinociception.

Test [2] deals with ICR mice. The test can be described thus: Hot plate test, acute morphine tolerance. The class given is in vivo. Particulars: oral administration following subcutaneous injection of morphine. The method, then:
For assessment of response latencies to thermal stimulus in mice, a Cold/Hot Plate Analgesia Meter (Ugo Basile, Comerio, Italy) was used. In this study, mice were placed on a hot plate that was thermostatically maintained at 55±1° C. The nociceptive response was evaluated as the latency to the first licking or lifting of the rear paws or escape jumping. Mice were removed from the hot plate immediately after displaying the response and a cut-off time of 30 sec was set to prevent tissue damage. The anti-nociceptive effect was measured using the same percentage of maximal possible effect (% MPE) as above.
To induce acute tolerance and dependence, separate groups of three ICR mice (20-25 g) were treated with a large dose of morphine (100 mg/kg s.c.). Maximal morphine tolerance and dependence peaked at approximately 4 to 6 h. Mice in the control group received an equal volume of saline. Tolerance to opioids was assessed 4.5 h later by monitoring the antinociceptive effect produced by a test dose of morphine (10 mg/kg, s.c.). The presence of opioid tolerance was signified by a significant reduction of antinociceptive effect. To examine dependence on opioids, mice were challenged with naloxone (10 mg/kg i.p.) 5h after the administration of morphine (100 mg/kg s.c.). Mice were immediately placed inside glass cylinders, and naloxone-induced vertical jumps were recorded for 15 min. […]

Consider `COc1cc(C=CC(=O)CC(=O)C=Cc2ccc(O)c(OC)c2)ccc1O` [unformulated curcumin, 1,7-bis-(4-hydroxy-3-methoxyphenyl)-1,6-heptadiene-3,5-dione], for which the “Analgesia in tail-flick test” value in test [1] is on record as “minimal effect”. In addition, in test [2], the “Analgesia in hot plate test” value is reported as “minimal effect”.
